Earlier results as cited in patent US6656923B1, “Uncomplexed cyclodextrin compositions for odor and wrinkle control” (The Procter & Gamble Company, priority 1997, dated 2003).

## ClC=CC[N+]12CN3CN(CN(C3)C1)C2.[Cl-] [Dowicil 200, 1-(3-Chlorallyl)-3,5,7-triaza-1-azoniaadamantane chloride]
  solubility in water: freely soluble in water
